Measured values from paper PMC10387993, “New pyrimidine-N-β-D-glucosides: synthesis, biological evaluation, and molecular docking investigations” (Turkish Journal of Chemistry, 2023).

Columns and labels:
[1] = biological target: BSA (Bos taurus, UniProt P02769); test: BSA binding study, UV-Visible absorption; conditions: UV-Vis, 25 μM compound, BSA 6.5–800 μM
Description: The vast majority of anticancer agents used in pharmaceutical chemistry act on functional macromolecules such as DNA and proteins. Given this well-known fact, the relationship between newly developed anticancer drug candidates and macromolecules should be studied in detail. The interaction of molecules with DNA leads to significant changes in the helical structure of DNA, which can be observed by spectrophotometric techniques. […] Also, the red or blue shift in the absorption bands of the compounds can be an indication of the stability of the compound and the DNA structure. The DNA/BSA binding properties of the new chemicals synthesized by our group were determined using a UV-Vis spectrophotometer. The interactions of these compounds with DNA were as follows. In the spectra obtained by UV-Vis studies of the compounds, a single maximum absorption peak was observed and this peak had no clear bathochromic or hypsochromic effect. […]. […] The physical interactions of our newly synthesized compounds with BSA caused the formation of the spectral bands described below. […]. […]. Kb is the binding constant related to the complex to DNA and can be calculated algebraically from the slope of the line drawn between [DNA] / (ɛa-ɛf) and [DNA]. […].
To find the interaction of the compounds with calf thymus DNA and to calculate the binding constants (Kb) UV–Visible absorption spectroscopy technique was used. A 2.5-mg calf thymus DNA was dissolved in 10.0 mL Tris–HCl buffer (20 mM Tris–HCl, 20 mM NaCl, pH 7.0) and stabile during one week in the refrigerator. […]. After dissolving the calf thymus DNA fibers in Tris–HCl buffer, the purity of this solution was checked from the absorbance ratio A260/A280. […]. These compounds were diluted with Tris–HCl buffer to obtain 25 μM concentrations. Test compounds in the solutions were incubated at room temperature for nearly 30 min before the process. The UV-visible spectral studies were performed in mixed solvent system (1/9 DMSO/Tris–HCl buffer) using eight points that the fine structure is observed for these compounds in this system by UV-visible absorption. […]. Absorption spectra were recorded by using 1-cm-path quartz cuvettes at room temperature. To evaluate the interaction of the compounds with BSA, UV–Visible absorption spectroscopy technique was also used. A 2.5 mg BSA was dissolved in 10.0 mL of Tris–HCl buffer (5 mM Tris–HCl, 10 mM NaCl at pH 7.4) and stored in the refrigerator. […]

[2] = test system: calf thymus DNA (CT-DNA); test: DNA binding study, UV-Visible absorption titration; conditions: UV-Vis titration, 25 μM compound
Description: The vast majority of anticancer agents used in pharmaceutical chemistry act on functional macromolecules such as DNA and proteins. Given this well-known fact, the relationship between newly developed anticancer drug candidates and macromolecules should be studied in detail. The interaction of molecules with DNA leads to significant changes in the helical structure of DNA, which can be observed by spectrophotometric techniques. […] Also, the red or blue shift in the absorption bands of the compounds can be an indication of the stability of the compound and the DNA structure. The DNA/BSA binding properties of the new chemicals synthesized by our group were determined using a UV-Vis spectrophotometer. The interactions of these compounds with DNA were as follows. […] Kb is the binding constant related to the complex to DNA and can be calculated algebraically from the slope of the line drawn between [DNA] / (ɛa-ɛf) and [DNA]. […]
To find the interaction of the compounds with calf thymus DNA and to calculate the binding constants (Kb) UV–Visible absorption spectroscopy technique was used. […] After dissolving the calf thymus DNA fibers in Tris–HCl buffer, the purity of this solution was checked from the absorbance ratio A260/A280. […] Absorption spectra were recorded by using 1-cm-path quartz cuvettes at room temperature. […]

Chain of BSA (P02769 25-607): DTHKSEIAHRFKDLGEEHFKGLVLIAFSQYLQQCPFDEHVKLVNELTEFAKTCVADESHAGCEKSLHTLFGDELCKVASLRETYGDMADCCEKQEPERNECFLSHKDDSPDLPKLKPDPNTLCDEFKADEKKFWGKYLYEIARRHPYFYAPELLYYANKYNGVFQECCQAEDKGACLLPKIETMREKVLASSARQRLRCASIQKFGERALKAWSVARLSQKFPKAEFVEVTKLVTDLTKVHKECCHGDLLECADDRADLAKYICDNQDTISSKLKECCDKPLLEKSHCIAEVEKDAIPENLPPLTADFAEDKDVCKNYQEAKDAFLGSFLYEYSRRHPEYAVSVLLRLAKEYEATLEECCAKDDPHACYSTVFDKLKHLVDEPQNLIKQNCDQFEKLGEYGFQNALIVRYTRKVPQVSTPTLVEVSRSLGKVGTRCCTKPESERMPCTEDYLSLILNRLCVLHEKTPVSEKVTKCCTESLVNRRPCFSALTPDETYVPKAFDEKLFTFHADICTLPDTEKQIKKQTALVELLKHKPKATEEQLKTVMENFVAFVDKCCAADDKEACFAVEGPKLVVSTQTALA

Structure (SMILES)	change of absorption on adding increasing amounts of BSA [1]	binding constant (Kb) [2]
Cc1ccccc1-c1cc(-c2ccccn2)nc(N[C@@H]2O[C@H](CO)[C@@H](O)[C@H](O)[C@H]2O)n1 [Compound 1, N-[4-(2-methylphenyl)-6-pyridin-2-ylpyrimidin-2-yl]-β-D-glucopyranosylamine]	–	greater interest in DNA than the anticancer drugs cisplatin and 5FU
CC(=O)OC[C@H]1O[C@@H](Nc2nc(-c3ccc(C)cc3)cc(-c3ccccn3)n2)[C@H](OC(C)=O)[C@@H](OC(C)=O)[C@@H]1OC(C)=O [Compound 16, 2,3,4,6-tetra-O-acetyl-N-[4-(4-methylphenyl)-6-pyridin-2-ylpyrimidin-2-yl]-β-D-glucopyranosylamine]	hypochromically	–
Cc1cccc(-c2cc(-c3ccccn3)nc(N[C@@H]3O[C@H](CO)[C@@H](O)[C@H](O)[C@H]3O)n2)c1 [Compound 4, N-[4-(3-methylphenyl)-6-pyridin-2-ylpyrimidin-2-yl]-β-D-glucopyranosylamine]	hyperchromic activity	–

Second part, led by results:

change of absorption on adding increasing amounts of BSA [1]	Structure (SMILES)	binding constant (Kb) [2]
hyperchromic activity	Cc1cccc(-c2cc(-c3ccncc3)nc(N[C@@H]3O[C@H](CO)[C@@H](O)[C@H](O)[C@H]3O)n2)c1 [Compound 6, N-[4-(3-methylphenyl)-6-pyridin-4-ylpyrimidin-2-yl]-β-D-glucopyranosylamine]	–
hyperchromic activity	Cc1ccc(-c2cc(-c3ccncc3)nc(N[C@@H]3O[C@H](CO)[C@@H](O)[C@H](O)[C@H]3O)n2)cc1 [Compound 9, N-[4-(4-methylphenyl)-6-pyridin-4-ylpyrimidin-2-yl]-β-D-glucopyranosylamine]	–
